The values below come from publication PMC4902181 (Journal of medicinal chemistry, 2015).

Data set [1] can be described thus: Human liver microsomal stability. Type of data set: in vitro ADME. Particulars: compound 10 µM, 30 min incubation.
A short description of data set [2]: Rat liver microsomal stability. Particulars: compound 10 µM, 30 min incubation. In kind it is in vitro ADME.
Data set [3] concerns the target RBP4 (Homo sapiens, UniProt P02753). Kind of data set: RBP4 scintillation proximity assay. Type of data set: binding.
Data set [4] relates to panel of fifty-five GPCRs, enzymes, ion channels, and transporters. Kind of data set: Standard off-target screening panel. Particulars: data not shown.
The target of data set [5] is T1, human PXR (Homo sapiens, UniProt O75469).
T1 sequence (O75469 1-434): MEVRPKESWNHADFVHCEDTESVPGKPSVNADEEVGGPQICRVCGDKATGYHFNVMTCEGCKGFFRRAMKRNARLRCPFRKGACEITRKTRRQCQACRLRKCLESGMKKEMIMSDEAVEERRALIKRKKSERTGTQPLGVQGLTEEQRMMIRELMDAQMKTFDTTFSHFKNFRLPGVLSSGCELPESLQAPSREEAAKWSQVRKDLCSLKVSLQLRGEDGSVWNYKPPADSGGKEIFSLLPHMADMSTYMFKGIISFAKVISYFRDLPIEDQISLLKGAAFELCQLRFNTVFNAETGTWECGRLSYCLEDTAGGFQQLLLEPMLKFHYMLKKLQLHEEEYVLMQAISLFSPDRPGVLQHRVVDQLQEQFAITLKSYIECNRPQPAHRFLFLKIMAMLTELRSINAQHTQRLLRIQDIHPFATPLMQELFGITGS
As to the kind of experiment: Human PXR activation. Particulars: data not shown.

Data set [6] deals with MDCK-MDR1. As to the kind of experiment: MDR1-MDCK permeability assay. Type of data set: in vitro ADME.
Data set [7] in a line: Single dose IV and PO PK in rats. In kind it is in vivo. Particulars: Sprague-Dawley, rat, plasma, 2 mg/kg.
The target of data set [8] is hERG channel (Homo sapiens, UniProt Q12809). As to the kind of experiment: Patch-Xpress patch-clamp hERG assay. In kind it is cell-based.
Chain of hERG channel (Q12809 whole entry): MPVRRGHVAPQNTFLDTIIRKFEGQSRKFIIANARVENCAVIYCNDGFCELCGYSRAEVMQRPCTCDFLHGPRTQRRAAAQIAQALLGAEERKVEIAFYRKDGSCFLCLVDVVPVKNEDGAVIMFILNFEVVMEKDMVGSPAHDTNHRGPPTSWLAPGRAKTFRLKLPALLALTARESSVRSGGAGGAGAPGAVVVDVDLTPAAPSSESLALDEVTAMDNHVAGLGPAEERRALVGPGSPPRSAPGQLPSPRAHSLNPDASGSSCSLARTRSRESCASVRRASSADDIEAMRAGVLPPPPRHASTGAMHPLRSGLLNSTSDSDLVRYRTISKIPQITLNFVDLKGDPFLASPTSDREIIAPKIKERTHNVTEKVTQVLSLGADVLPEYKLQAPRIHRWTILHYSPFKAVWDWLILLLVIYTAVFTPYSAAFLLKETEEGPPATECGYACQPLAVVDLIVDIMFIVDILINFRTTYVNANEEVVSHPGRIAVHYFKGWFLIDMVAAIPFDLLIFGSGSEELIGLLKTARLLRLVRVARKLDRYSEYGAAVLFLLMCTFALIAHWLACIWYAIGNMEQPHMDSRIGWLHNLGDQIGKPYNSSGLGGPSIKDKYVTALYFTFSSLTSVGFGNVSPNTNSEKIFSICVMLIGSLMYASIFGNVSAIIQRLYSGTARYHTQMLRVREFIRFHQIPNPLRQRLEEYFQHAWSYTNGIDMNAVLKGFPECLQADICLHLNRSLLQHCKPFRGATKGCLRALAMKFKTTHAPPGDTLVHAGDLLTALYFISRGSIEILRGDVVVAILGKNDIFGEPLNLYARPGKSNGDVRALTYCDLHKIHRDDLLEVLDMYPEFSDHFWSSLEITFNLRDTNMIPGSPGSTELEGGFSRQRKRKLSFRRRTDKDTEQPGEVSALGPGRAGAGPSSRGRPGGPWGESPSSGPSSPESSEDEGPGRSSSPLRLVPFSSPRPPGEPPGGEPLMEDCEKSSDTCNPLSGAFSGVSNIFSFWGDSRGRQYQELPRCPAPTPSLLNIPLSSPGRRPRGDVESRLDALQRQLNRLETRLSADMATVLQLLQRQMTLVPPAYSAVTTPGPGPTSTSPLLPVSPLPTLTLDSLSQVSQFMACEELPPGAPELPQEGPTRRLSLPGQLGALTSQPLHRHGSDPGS
For data set [9], the system named is serum RBP4. Particulars: chronic oral administration, Abca4−/− mouse; cited from earlier work.
The conditions of data set [10]: 30 min incubation; cited from earlier work.
The test system of data set [11] is lipofuscin bisretinoids. Particulars: chronic oral administration, Abca4−/− mouse; cited from earlier work.
Data set [12] deals with serum RBP4. Particulars: acute and chronic rodent oral dosing; cited from earlier work.
Data set [13] concerns the target CYP2C9 (Homo sapiens, UniProt P11712). Particulars: read-out: CYP2C9 inhibitory activity IC50; cited from earlier work.
Data set [14] concerns the target RBP4-TTR interaction (Homo sapiens, UniProt P02753). As to the kind of experiment: HTRF retinol-dependent RBP4-TTR interaction assay. In kind it is biochemical. The settings on record: read-out: RBP4 HTRF IC50; 1 µM retinol.

Structures are written as SMILES. “Also recorded” adds a separate entry of the source.

Chain of CYP2C9 (P11712 whole entry): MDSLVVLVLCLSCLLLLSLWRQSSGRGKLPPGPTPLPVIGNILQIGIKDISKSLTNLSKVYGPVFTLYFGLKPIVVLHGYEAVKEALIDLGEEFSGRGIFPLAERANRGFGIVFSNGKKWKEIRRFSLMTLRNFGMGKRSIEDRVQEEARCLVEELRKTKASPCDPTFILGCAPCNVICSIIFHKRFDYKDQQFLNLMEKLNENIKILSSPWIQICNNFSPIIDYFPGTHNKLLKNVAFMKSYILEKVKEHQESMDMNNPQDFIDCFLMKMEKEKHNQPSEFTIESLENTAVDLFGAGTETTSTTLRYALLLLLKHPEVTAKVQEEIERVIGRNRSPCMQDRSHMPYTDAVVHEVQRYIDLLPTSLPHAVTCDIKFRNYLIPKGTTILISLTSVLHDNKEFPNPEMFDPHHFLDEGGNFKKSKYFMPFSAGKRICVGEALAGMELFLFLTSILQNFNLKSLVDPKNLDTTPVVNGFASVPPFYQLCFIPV

Take `COC(=O)c1cc(C)nc(N2C[C@H]3C[C@@H](c4ccccc4C(F)(F)F)C[C@H]3C2)n1` [Compound 28, Methyl 6-Methyl-2-((3aR,5r,6aS)-5-(2-(trifluoromethyl)phenyl)-hexahydrocyclopenta[c]pyrrol-2(1H)-yl)pyrimidine-4-carboxylate]: the “microsomal stability (% remaining) HLM” value in [1] is given as 0.2 % remaining. Moreover, the “microsomal stability (% remaining) RLM” value in data set [2] was 9.8 % remaining.

As to `Cc1cc(C(=O)O)nc(N2CCC(c3ccccc3C(F)(F)F)CC2)n1` [Compound 10, 6-Methyl-2-(4-(2-(trifluoromethyl)phenyl)piperidin-1-yl)-pyrimidine-4-carboxylic Acid], in data set [1], the “microsomal stability (% remaining) HLM” value came to 68 % remaining. Moreover, the “microsomal stability (% remaining) RLM” value in data set [2] came to 96 % remaining.

As for `Cc1cc(C(=O)O)nc(N2C[C@H]3C[C@H](c4ccccc4C(F)(F)F)C[C@H]3C2)n1` [Compound 40, 6-Methyl-2-((3aR,5s,6aS)-5-(2-(trifluoromethyl)phenyl)-hexahydrocyclopenta[c]pyrrol-2(1H)-yl)pyrimidine-4-carboxylic Acid], the “RBP4 activity” value in data set [3] is on record as “devoid of RBP4 activity”.

In the case of `COC(=O)c1cc(C)nc(N2CCN(c3ccccc3C(F)(F)F)CC2)n1` [Compound 13, methyl 6-methyl-2-(4-(2-(trifluoromethyl)phenyl)piperazin-1-yl)-pyrimidine-4-carboxylate], the “microsomal stability (% remaining) HLM” value in data set [1] came out at 0.0 % remaining. For the same compound, the “microsomal stability (% remaining) RLM” value in data set [2] is recorded as 0.0 % remaining.

Regarding `Cc1cc(C(=O)O)nc(N2C[C@@H]3CN(c4ccccc4C(F)(F)F)C[C@@H]3C2)n1` [Compound 18, 6-Methyl-2-((3aR,6aS)-5-(2-(trifluoromethyl)phenyl)hexahydropyrrolo[3,4-c]pyrrol-2(1H)-yl)pyrimidine-4-carboxylic Acid], in data set [1], the “microsomal stability (% remaining) HLM” value is given as 80 % remaining. Also, the “microsomal stability (% remaining) RLM” value in data set [2] is 76 % remaining.

As for `O=C(O)c1cncc(N2C[C@H]3C[C@@H](c4ccccc4C(F)(F)F)C[C@H]3C2)c1` [Compound 51, 5-((3aR,5r,6aS)-5-(2-(Trifluoromethyl)phenyl)hexahydrocyclopenta[c]pyrrol-2(1H)-yl)nicotinic Acid], the “RBP4 activity” value in data set [3] is recorded as “devoid of RBP4 activity”.

Take `Cc1cc(C(=O)O)nc(N2CCN(c3ccccc3C(F)(F)F)CC2)n1` [Compound 14, 6-Methyl-2-(4-(2-(trifluoromethyl)phenyl)piperazin-1-yl)-pyrimidine-4-carboxylic Acid]: the “microsomal stability (% remaining) HLM” value in [1] is 18 % remaining. Besides, in data set [2], the “microsomal stability (% remaining) RLM” value is recorded as 63 % remaining.

Consider `Cc1cc(C(=O)O)nc(N2C[C@H]3C[C@@H](c4ccccc4C(F)(F)F)C[C@H]3C2)n1` [Compound 33, 6-Methyl-2-((3aR,5r,6aS)-5-(2-(trifluoromethyl)phenyl)-hexahydrocyclopenta[c]pyrrol-2(1H)-yl)pyrimidine-4-carboxylic Acid], for which, in data set [4], the “off-target activity in screening panel” value is “no significant off-target activity”. The “human PXR activation” value in [5] was “did not induce human PXR activation”. In [6], the MDCK-MDR1 permeability class entry is on record as “highly permeable; also recorded: high permeability”. Moreover, in data set [1], the “microsomal stability (% remaining) HLM” value turned out to be 94 % remaining. In data set [7], this compound gave a clearance of 5.06 mL/h/kg. Further, the “off-target activity at the hERG channel” value in data set [8] is listed as “no significant off-target activity”. Moreover, in [2], the “microsomal stability (% remaining) RLM” value was 93 % remaining.

In the case of `O=C(O)c1ccccc1NC(=O)N1CCC(c2ccccc2C(F)(F)F)CC1` [Compound 3, A1120, reference compound], the “reduction in serum RBP4” value in data set [9] is 75%. The “HLM stability (% remaining)” value in data set [10] is recorded as ~ 3 % remaining. Further, the “microsomal stability (% remaining) HLM” value in [1] is on record as 3 % remaining. The “reduction of accumulation of lipofuscin bisretinoids” value in data set [11] is “approximately 50%”. In data set [2], the “microsomal stability (% remaining) RLM” value is listed as 85 % remaining.

On to `O=C(O)c1ccccc1NC(=O)N1C[C@H]2C[C@@H](c3ccccc3C(F)(F)F)C[C@H]2C1` [Compound 4, 2-((3aR,5r,6aS)-5-(2-(trifluoromethyl)phenyl)octahydrocyclopenta[c]pyrrole-2-carboxamido)benzoic acid], for which, in data set [12], the “lowering of serum RBP4 levels” value was above 85%. Further, the IC50 was 72.7 nM in [3] (read-out: RBP4 SPA IC50, fixed 10 nM 3H-retinol); 340 nM in data set [13]; 294 nM in data set [14]. The “HLM stability (% remaining)” value in data set [10] was 100 % remaining. The “microsomal stability (% remaining) HLM” value in data set [1] was determined as 100 % remaining. For the same compound, the “microsomal stability (% remaining) RLM” value in [2] is listed as 75 % remaining.
